In PubChem BioAssay AID330 (DTP/NCI, 2004):
Where “and” joins values, the source holds several entries; their conditions need not be identical. Identical values can stand only once. Toxic doses and inconclusive results are not listed. The calls were made as follows: active = survival T/C of 150% or more; inactive = T/C below 125% in these data.

Test system: P388 leukemia ip, CD2F1 mice, survival T/C
Assay: NCI In Vivo Anticancer Drug Screen. Data for tumor model P388 Leukemia (intraperitoneal) in CD2F1 (CDF1) mice
Settings: endpoint: median survival time, higher = longer survival
Procedure, shortened: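 Mice carrying the transplanted tumor received test compound or vehicle. Survival was recorded in each group, and the value is the treated-group measurement divided by that of the vehicle-treated control group.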

[1] = dose: 25.0 mg/kg/injection, schedule: Q01DX009 (ip), vehicle: Klucel (hydroxypropylcellulose) (HPC)
[2] = dose: 50.0 mg/kg/injection, schedule: Q01DX009 (ip), vehicle: Klucel (hydroxypropylcellulose) (HPC)
[3] = dose: 400.0 mg/kg/injection, schedule: Q04DX003 (ip), vehicle: Klucel (hydroxypropylcellulose) (HPC)
[4] = dose: 12.5 mg/kg/injection, schedule: Q01DX005 (ip), vehicle: saline with Tween-80
[5] = dose: 25.0 mg/kg/injection, schedule: Q01DX005 (ip), vehicle: saline with Tween-80
[6] = dose: 3.75 mg/kg/injection, schedule: Q01DX005 (ip), vehicle: saline with Tween-80
[7] = dose: 7.5 mg/kg/injection, schedule: Q01DX005 (ip), vehicle: saline with Tween-80
[8] = dose: 15.0 mg/kg/injection, schedule: Q01DX005 (ip), vehicle: saline with Tween-80
[9] = dose: 50.0 mg/kg/injection, schedule: Q01DX009 (ip), vehicle: saline with Tween-80
[10] = dose: 100.0 mg/kg/injection, schedule: Q01DX009 (ip), vehicle: saline with Tween-80
[11] = dose: 200.0 mg/kg/injection, schedule: Q01DX009 (ip), vehicle: saline with Tween-80
[12] = dose: 30.0 mg/kg/injection, schedule: Q01DX005 (ip), vehicle: saline with Tween-80
[13] = dose: 50.0 mg/kg/injection, schedule: Q01DX005 (ip), vehicle: Klucel (hydroxypropylcellulose) (HPC)
[14] = dose: 100.0 mg/kg/injection, schedule: Q01DX005 (ip), vehicle: Klucel (hydroxypropylcellulose) (HPC)
[15] = dose: 200.0 mg/kg/injection, schedule: Q01DX005 (ip), vehicle: Klucel (hydroxypropylcellulose) (HPC)
[16] = dose: 50.0 mg/kg/injection, schedule: Q01DX009 (ip), vehicle: saline
[17] = dose: 200.0 mg/kg/injection, schedule: Q01DX009 (ip), vehicle: saline

Measured: T/C

COc1cccc2c1C(=O)c1c(O)c3c(c(O)c1C2=O)C[C@@](O)(C(C)O)C[C@@H]3OC1CC(NCc2ccccc2)C(O)C(C)O1 (stereo not given in full)
active: dose: 0.78 mg/kg/injection, schedule: Q01DX009 (ip), vehicle: water 158 % of control | dose: 1.56 mg/kg/injection, schedule: Q01DX009 (ip), vehicle: water 163 % of control | dose: 3.13 mg/kg/injection, schedule: Q01DX009 (ip), vehicle: water 181 % of control and 194 % of control | dose: 6.25 mg/kg/injection, schedule: Q01DX009 (ip), vehicle: water 215 % of control and 226 % of control

COC1/C=C\OC2(C)Oc3c(C)c(O)c4c(O)c(c5c(c4c3C2=O)OC[N+](C)=C5)NC(=O)/C(C)=C\C=C\C(C)C(O)C(C)C(O)C(C)C(OC(C)=O)C1C (stereo not given)
inactive: [1] 92 % of control | [2] 97 % of control | dose: 100.0 mg/kg/injection, schedule: Q01DX009 (ip), vehicle: Klucel (hydroxypropylcellulose) (HPC) 95 % of control | dose: 200.0 mg/kg/injection, schedule: Q01DX009 (ip), vehicle: Klucel (hydroxypropylcellulose) (HPC) 95 % of control

CCCCCCC1NC(CCCCCC)N2C(CCCCCC)N12 (stereo not given)
inactive: dose: 100.0 mg/kg/injection, schedule: Q04DX003 (ip), vehicle: Klucel (hydroxypropylcellulose) (HPC) 101 % of control | dose: 200.0 mg/kg/injection, schedule: Q04DX003 (ip), vehicle: Klucel (hydroxypropylcellulose) (HPC) 97 % of control | [3] 93 % of control

Cc1cc(N2CCOCC2)nc(N2CCOCC2)c1C#N
inactive: dose: 6.25 mg/kg/injection, schedule: Q01DX005 (ip), vehicle: saline with Tween-80 100 % of control | [4] 108 % of control | [5] 99 % of control

C/C=C/c1ccccc1N/N=C(\Cl)C(=O)OCC
inactive: [6] 107 % of control | [7] 99 % of control | [4] 99 % of control | [8] 119 % of control | [5] 106 % of control | dose: 50.0 mg/kg/injection, schedule: Q01DX005 (ip), vehicle: saline with Tween-80 118 % of control | [9] 117 % of control

CSCCC1NC(=O)C(C(C)=Nc2ccccc2)=C1O (stereo not given)
inactive: [9] 94 % of control | [10] 92 % of control | [11] 98 % of control | dose: 400.0 mg/kg/injection, schedule: Q01DX009 (ip), vehicle: saline with Tween-80 99 % of control

CCOc1c(Br)cc(/C=C/[N+](=O)[O-])cc1OC
inactive: [6] 103 % of control | [7] 112 % of control and 116 % of control | [8] 109 % of control and 120 % of control | [12] 120 % of control

COc1ccc(CN2CCCNCC2)cc1
inactive: dose: 12.5 mg/kg/injection, schedule: Q01DX009 (ip), vehicle: water 93 % of control | dose: 25.0 mg/kg/injection, schedule: Q01DX009 (ip), vehicle: water 100 % of control | dose: 50.0 mg/kg/injection, schedule: Q01DX009 (ip), vehicle: water 102 % of control | dose: 100.0 mg/kg/injection, schedule: Q01DX009 (ip), vehicle: water 93 % of control

O=C(Nc1ccccc1C(=O)c1ccccc1)Nc1ccc(F)cc1[N+](=O)[O-]
inactive: [9] 97 % of control | [10] 109 % of control | [11] 94 % of control

O=[N+]([O-])c1ccc(/C=N/O)s1
inactive: dose: 12.5 mg/kg/injection, schedule: Q01DX009 (ip), vehicle: Klucel (hydroxypropylcellulose) (HPC) 109 % of control | [1] 101 % of control | [2] 108 % of control

COC(=O)NC1=CCC(C(C)(C)C)CC1 (stereo not given)
inactive: dose: 25.0 mg/kg/injection, schedule: Q01DX005 (ip), vehicle: Klucel (hydroxypropylcellulose) (HPC) 108 % of control | [13] 113 % of control | [14] 106 % of control | [15] 103 % of control

Cc1ccc2ncc(C)c(/C=C/c3ccc(N(C)C)cc3)c2c1
inactive: dose: 50.0 mg/kg/injection, schedule: Q01DX001 (ip), vehicle: saline with Tween-80 108 % of control | dose: 100.0 mg/kg/injection, schedule: Q01DX001 (ip), vehicle: saline with Tween-80 112 % of control | dose: 200.0 mg/kg/injection, schedule: Q01DX001 (ip), vehicle: saline with Tween-80 122 % of control

COc1ccc2c(c1)CCC1C2=CC(=O)/C1=C\[O-].COc1ccc2c(c1)CCC1C2=CC(=O)/C1=C\[O-].[Cu+2] (stereo not given)
inactive: dose: 33.0 mg/kg/injection, schedule: Q04DX003 (ip), vehicle: saline with Tween-80 109 % of control | dose: 50.0 mg/kg/injection, schedule: Q04DX003 (ip), vehicle: saline with Tween-80 100 % of control and 90 % of control | dose: 75.0 mg/kg/injection, schedule: Q04DX003 (ip), vehicle: saline with Tween-80 100 % of control

Cc1ccc(OP2(=O)NC3CCCCC3N2)cc1 (stereo not given)
inactive: [13] 99 % of control | [14] 93 % of control | [15] 96 % of control

Cc1ccc(/C=C/C(=O)C(C)(C)CN(C)CCN(C)C)cc1
inactive: dose: 60.0 mg/kg/injection, schedule: Q01DX005 (ip), vehicle: saline 103 % of control | dose: 120.0 mg/kg/injection, schedule: Q01DX005 (ip), vehicle: saline 98 % of control

CC1(C)OP(=O)(O)C=C1Br
inactive: [16] 103 % of control | dose: 100.0 mg/kg/injection, schedule: Q01DX009 (ip), vehicle: saline 107 % of control | [17] 93 % of control

CN(C)C(=S)S/C=C\C(=O)O
inactive: dose: 6.25 mg/kg/injection, schedule: Q04DX003 (ip), vehicle: Klucel (hydroxypropylcellulose) (HPC) 97 % of control | dose: 12.5 mg/kg/injection, schedule: Q04DX003 (ip), vehicle: Klucel (hydroxypropylcellulose) (HPC) 97 % of control | dose: 25.0 mg/kg/injection, schedule: Q04DX003 (ip), vehicle: Klucel (hydroxypropylcellulose) (HPC) 100 % of control | [3] 88 % of control

Oc1ccc(Cl)cc1CN1CCN(Cc2cc(Cl)ccc2O)CC1
inactive: [8] 100 % of control | [12] 97 % of control | dose: 60.0 mg/kg/injection, schedule: Q01DX005 (ip), vehicle: saline with Tween-80 89 % of control

CC1OC(CC(=O)O)CC2=C1C(=O)c1c(O)cccc1C2=O (stereo not given)
inactive: dose: 3.13 mg/kg/injection, schedule: Q01DX009 (ip), vehicle: saline with Tween-80 94 % of control | dose: 6.25 mg/kg/injection, schedule: Q01DX009 (ip), vehicle: saline with Tween-80 115 % of control and 117 % of control | dose: 12.5 mg/kg/injection, schedule: Q01DX009 (ip), vehicle: saline with Tween-80 110 % of control and 115 % of control | dose: 25.0 mg/kg/injection, schedule: Q01DX009 (ip), vehicle: saline with Tween-80 101 % of control and 114 % of control

COC(=O)C1=C(C(=O)OC)P2(c3ccccc3)(c3ccccc3)N(C)C(=S)N2C1(c1ccccc1)c1ccccc1
inactive: [13] 103 % of control | [14] 105 % of control | [15] 90 % of control

Cc1cc(N=Nc2ccc(N=Nc3ccc(S(=O)(=O)O)cc3)cc2)cc(C(=O)O)c1O
inactive: dose: 12.5 mg/kg/injection, schedule: Q01DX009 (ip), vehicle: saline 114 % of control | dose: 25.0 mg/kg/injection, schedule: Q01DX009 (ip), vehicle: saline 113 % of control | [16] 91 % of control and 96 % of control | [17] 93 % of control
